Common to all, as to assay type: biochemical
The target of experiment [1] is Pim3 kinase (Homo sapiens, UniProt Q86V86). The experiment in a line: Pim3 ATP depletion assay.
Experiment [2] has as its target T1, human full length PKCE enzyme (Homo sapiens, UniProt Q02156).
T1 construct: human full length PKCE enzyme purchased from InVitrogen; purchased InVitrogen
T1 sequence (Q02156 1-737): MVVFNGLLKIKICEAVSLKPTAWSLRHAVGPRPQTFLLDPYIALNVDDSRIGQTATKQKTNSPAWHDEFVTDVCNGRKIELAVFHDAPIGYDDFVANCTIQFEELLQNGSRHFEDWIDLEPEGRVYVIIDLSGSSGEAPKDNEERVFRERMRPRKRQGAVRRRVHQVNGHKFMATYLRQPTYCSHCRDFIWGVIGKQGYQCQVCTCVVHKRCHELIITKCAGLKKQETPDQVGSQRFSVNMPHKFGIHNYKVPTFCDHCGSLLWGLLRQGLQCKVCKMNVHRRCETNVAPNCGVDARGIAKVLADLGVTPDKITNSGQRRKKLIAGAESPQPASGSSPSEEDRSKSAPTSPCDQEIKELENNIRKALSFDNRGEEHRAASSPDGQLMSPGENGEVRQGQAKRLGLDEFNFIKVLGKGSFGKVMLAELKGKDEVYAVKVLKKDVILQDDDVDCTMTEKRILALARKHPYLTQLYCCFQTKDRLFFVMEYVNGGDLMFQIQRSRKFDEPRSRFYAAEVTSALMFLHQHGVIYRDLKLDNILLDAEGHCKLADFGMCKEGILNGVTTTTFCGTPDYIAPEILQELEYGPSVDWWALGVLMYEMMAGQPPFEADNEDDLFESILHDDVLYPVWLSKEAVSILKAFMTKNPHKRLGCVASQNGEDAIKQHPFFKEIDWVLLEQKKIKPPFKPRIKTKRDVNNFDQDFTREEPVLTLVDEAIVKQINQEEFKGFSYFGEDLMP
Description: In vitro PKCE assay. Conditions: 10 nM enzyme, 40 uM peptide substrate, 20 uM ATP, KinaseGlo Plus readout; read-out: PKCε IC50. Background: Kinase-Glo measures the ATP left after a reaction by luminescence.

In experiment [3] the target is Pim2 kinase (Homo sapiens, UniProt Q9P1W9). Description: Pim2 ATP depletion assay.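 Also: Luciferase-based luminescent readout of ATP remaining after PIM2 phosphorylates a BAD peptide, final 5 nM enzyme, 4 µM ATP, 10 µM peptide, 2.5% DMSO, run to roughly half ATP consumption.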
Chain of Pim2 kinase (Q9P1W9 whole entry): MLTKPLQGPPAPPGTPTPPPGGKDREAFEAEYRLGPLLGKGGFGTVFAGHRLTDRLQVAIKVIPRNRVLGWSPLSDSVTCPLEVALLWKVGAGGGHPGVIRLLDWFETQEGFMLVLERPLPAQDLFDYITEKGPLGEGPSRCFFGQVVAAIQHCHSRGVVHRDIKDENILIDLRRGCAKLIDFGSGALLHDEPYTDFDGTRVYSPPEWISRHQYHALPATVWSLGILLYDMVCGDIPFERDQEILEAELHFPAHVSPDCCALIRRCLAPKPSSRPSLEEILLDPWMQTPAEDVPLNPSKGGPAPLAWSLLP
For experiment [4], the target named is Pim1 kinase (Homo sapiens, UniProt P11309). Description: Pim1 ATP depletion assay.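 Also: Luciferase-luciferin luminescence readout of residual ATP after PIM1 transfers phosphate to a peptide substrate, 40 µM ATP added, reaction run to roughly half ATP consumption.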
Chain of Pim1 kinase (P11309 whole entry): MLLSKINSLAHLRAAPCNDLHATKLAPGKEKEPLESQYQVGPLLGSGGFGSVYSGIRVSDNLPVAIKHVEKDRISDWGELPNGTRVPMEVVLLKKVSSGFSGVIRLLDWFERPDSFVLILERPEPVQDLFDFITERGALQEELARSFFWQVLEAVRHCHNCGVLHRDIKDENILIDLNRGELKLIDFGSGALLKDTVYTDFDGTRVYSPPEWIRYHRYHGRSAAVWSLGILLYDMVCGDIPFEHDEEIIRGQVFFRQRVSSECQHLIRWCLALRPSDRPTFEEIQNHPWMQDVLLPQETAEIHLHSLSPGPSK
The mark [5] stands for this setting: Pim1 ATP depletion assay, read-out: IC50 (μM) PIM1.
The mark [6] stands for this setting: Pim1 ATP depletion assay, read-out: PIM1 IC50.

Broadly, the IC50 is the midpoint of a concentration-inhibition curve.

Where two headings read alike, the source gives them in different places. A value given as a limit tells only on which side of the number the result lay.

In the case of `Nc1nccnc1C(=O)Nc1cncnc1N1CCCCC1` [Example 128, 3-amino-N-(4-piperidin-1-yl-pyrimidin-5-yl)pyrazine-2-carboxamide], the IC50 in experiment [1] (read-out: IC50 (μM) PIM3) was 10 to 25 µM; in experiment [2], greater than 25000 nM; in experiment [3] (read-out: IC50 (μM) PIM2), greater than 25 µM; in experiment [4] (setting [5]) it was 1 to 10 µM.

With `NC(=O)c1ccc(N2CCCCC2)c(NC(=O)c2nccnc2N)c1` [Example 129, 3-amino-N-(5-carbamoyl-2-piperidin-1-ylphenyl)pyrazine-2-carboxamide], the IC50 in experiment [2] lay within 1000 to 10000 nM.

As for `Nc1nccnc1C(=O)Nc1[nH]c(=O)ncc1-c1ccco1` [Example 136, 3-amino-N-[5-(2-furyl)-2-oxo-2,3-dihydropyrimidin-4-yl]-pyrazine-2-carboxamide], the IC50 in experiment [1] (read-out: IC50 (μM) PIM3) was less than 1 µM; in experiment [2] it was 1000 to 10000 nM; in experiment [3] (read-out: IC50 (μM) PIM2), less than 1 µM; in experiment [4] (setting [5]), less than 1 µM.

Turning to `Nc1nccnc1C(=O)Nc1[nH]c(=O)ncc1-c1cccs1` [Example 137, 3-amino-N-[2-oxo-5-(2-thienyl)-2,3-dihydropyrimidin-4-yl]-pyrazine-2-carboxamide], the IC50 in experiment [1] (read-out: IC50 (μM) PIM3) was less than 1 µM; in experiment [2] it was less than 1000 nM; in experiment [3] (read-out: IC50 (μM) PIM2), less than 1 µM; in experiment [4] (setting [5]) it was less than 1 µM.

`Nc1nccnc1C(=O)Nc1[nH]c(=O)ncc1-c1nccs1` [Example 138, 3-amino-N-[2-oxo-5-(1,3-thiazol-2-yl)-2,3-dihydro-pyrimidin-4-yl]pyrazine-2-carboxamide]: the IC50 was less than 1 µM in experiment [1] (read-out: IC50 (μM) PIM3), greater than 25000 nM in experiment [2], less than 1 µM in experiment [3] (read-out: IC50 (μM) PIM2) and less than 1 µM in experiment [4] (setting [5]).

Turning to `Cn1cccc1-c1cnc(=O)[nH]c1NC(=O)c1nccnc1N` [Example 139, 3-amino-N-[5-(1-methyl-1H-pyrrol-2-yl)-2-oxo-2,3-dihydro-pyrimidin-4-yl]pyrazine-2-carboxamide], the IC50 in experiment [1] (read-out: IC50 (μM) PIM3) was less than 1 µM; in experiment [2], less than 1000 nM; in experiment [3] (read-out: IC50 (μM) PIM2) it was less than 1 µM; in experiment [4] (setting [5]), less than 1 µM.

On to `Nc1nccnc1C(=O)Nc1[nH]c(=O)ncc1-c1ccccn1` [Example 140, 3-amino-N-(2-oxo-5-pyridin-2-yl-2,3-dihydropyrimidin-4-yl)-pyrazine-2-carboxamide], for which the IC50 in experiment [1] (read-out: IC50 (μM) PIM3) is less than 1 µM; in experiment [2] it was 1000 to 10000 nM; in experiment [3] (read-out: IC50 (μM) PIM2), less than 1 µM; in experiment [4] (setting [5]), less than 1 µM.

`Nc1ncc(Br)nc1C(=O)Nc1[nH]c(=O)ncc1-c1ccco1` [Example 141, 3-amino-6-bromo-N-[5-(2-furyl)-2-oxo-2,3-dihydro-pyrimidin-4-yl]pyrazine-2-carboxamide]: the IC50 in experiment [1] (read-out: IC50 (μM) PIM3) is less than 1 µM; in experiment [2] it was 1000 to 10000 nM; in experiment [3] (read-out: IC50 (μM) PIM2) it was less than 1 µM; in experiment [4] (setting [5]), less than 1 µM.

Turning to `Cn1cccc1-c1cnc(=O)[nH]c1NC(=O)c1nc(Br)cnc1N` [Example 144, 3-amino-6-bromo-N-[5-(1-methyl-1H-pyrrol-2-yl)-2-oxo-2,3-dihydropyrimidin-4-yl]-pyrazine-2-carboxamide], in experiment [2], the IC50 lay within 1000 to 10000 nM.

As for `Nc1nccnc1C(=O)Nc1[nH]c(=O)ncc1N1CCC(F)CC1` [Example 149, 3-amino-N-[5-(4-fluoro-piperidin-1-yl)-2-oxo-2,3-dihydropyrimidin-4-yl]pyrazine-2-carboxamide], in experiment [2], the 50% inhibitory concentration (IC50) was 1000 to 10000 nM.

Take `Nc1nccnc1C(=O)Nc1cnccc1N1CCC(N)C1` (stereo not drawn) [Example 190, 3-amino-N-[4-(3-amino-pyrrolidin-1-yl)pyridin-3-yl]-pyrazine-2-carboxamide]: the IC50 in experiment [2] was greater than 25000 nM.

For `Nc1ncc(-c2ccncc2)nc1C(=O)Nc1cnccc1N1CCCC(N)C1` (stereo not drawn) [Example 354, 3-amino-6-pyridin-4-yl-pyrazine-2-carboxylic acid (3-amino-3,4,5,6-tetrahydro-2H-[1,4′]bipyridinyl-3′-yl)-amide], the IC50 in experiment [2] is 1000 to 10000 nM.

For the molecule `COC(=O)c1nc(-c2nc(C(=O)Nc3cnccc3N3CCC[C@H](N)C3)c(N)cc2F)c(F)cc1N` [Example 742, 5,5′-Diamino-6′-(3-amino-3,4,5,6-tetrahydro-2H-[1,4′]bi-pyridinyl-3′-ylcarbamoyl)-3,3′-difluoro-[2,2′]bipyridinyl-6-carboxylic acid methyl ester], the IC50 in experiment [1] (read-out: PIM3 IC50), in experiment [3] (read-out: PIM2 IC50) and in experiment [4] (setting [6]) was less than 1 µM in each case.

As for `Nc1cc(F)c(-c2ncccc2Cl)nc1C(=O)Nc1cnccc1N1CCC[C@H](N)C1` [Example 743, 5-Amino-3′-chloro-3-fluoro-[2,2′]bipyridinyl-6-carboxylic acid (3-amino-3,4,5,6-tetra-hydro-2H-[1,4′]bipyridinyl-3′-yl)-amide], the IC50 in experiment [1] (read-out: PIM3 IC50), in experiment [3] (read-out: PIM2 IC50) and in experiment [4] (setting [6]) was less than 1 µM in each case.

Take `Cc1ccc(F)c(-c2nc(C(=O)Nc3cnccc3N3CCC[C@H](N)C3)c(N)cc2F)n1` [Example 745, 5-Amino-3,3′-difluoro-6′-methyl-[2,2′]bipyridinyl-6-carboxylic acid (3-amino-3,4,5,6-tetrahydro-2H-[1,4′]bi-pyridinyl-3′-yl)-amide]: the IC50 in experiment [1] (read-out: PIM3 IC50), in experiment [3] (read-out: PIM2 IC50) and in experiment [4] (setting [6]) was less than 1 µM in each case.

On to `Cc1cc(-c2ccncc2NC(=O)c2nc(-c3ncccc3F)ccc2N)cc(N)n1` [Example 746, 5-Amino-3′-fluoro-[2,2′]bi-pyridinyl-6-carboxylic acid (2′-amino-6′-methyl-[4,4′]bi-pyridinyl-3-yl)-amide], for which the IC50 in experiment [1] (read-out: PIM3 IC50), in experiment [3] (read-out: PIM2 IC50) and in experiment [4] (setting [6]) was less than 1 µM throughout.

As to `CCCOc1cncc(-c2ccc(N)c(C(=O)Nc3cnccc3N3CCC[C@H](N)C3)n2)n1` [Example 747, 3-Amino-6-(6-propoxy-pyrazin-2-yl)-pyridine-2-carboxylic acid (3-amino-3,4,5,6-tetrahydro-2H-[1,4′]bipyridinyl-3′-yl)-amide], the IC50 in experiment [1] (read-out: PIM3 IC50), in experiment [3] (read-out: PIM2 IC50) and in experiment [4] (setting [6]) was less than 1 µM each time.

Consider `CC(C)Oc1cncc(-c2ccc(N)c(C(=O)Nc3cnccc3N3CCC[C@H](N)C3)n2)n1` [Example 748, 3-Amino-6-(6-isopropoxy-pyrazin-2-yl)-pyridine-2-carboxylic acid (3-amino-3,4,5,6-tetrahydro-2H-[1,4′]bi-pyridinyl-3′-yl)-amide], for which the IC50 in experiment [1] (read-out: PIM3 IC50), in experiment [3] (read-out: PIM2 IC50) and in experiment [4] (setting [6]) was less than 1 µM each time.

Consider `CCOc1cncc(-c2ccc(N)c(C(=O)Nc3cnccc3N3CCC[C@H](N)C3)n2)n1` [Example 749, 3-Amino-6-(6-ethoxy-pyrazin-2-yl)-pyridine-2-carboxylic acid (3-amino-3,4,5,6-tetrahydro-2H-[1,4′]bipyridinyl-3′-yl)-amide], for which the IC50 in experiment [1] (read-out: PIM3 IC50), in experiment [3] (read-out: PIM2 IC50) and in experiment [4] (setting [6]) was less than 1 µM in each case.

With `Nc1ccc(-c2cncc(OCc3ccccc3)n2)nc1C(=O)Nc1cnccc1N1CCC[C@H](N)C1` [Example 750, 3-Amino-6-(6-benzyloxy-pyrazin-2-yl)-pyridine-2-carboxylic acid (3-amino-3,4,5,6-tetrahydro-2H-[1,4′]bi-pyridinyl-3′-yl)-amide], the IC50 in experiment [1] (read-out: PIM3 IC50), in experiment [3] (read-out: PIM2 IC50) and in experiment [4] (setting [6]) was less than 1 µM throughout.

For the molecule `Nc1cc(F)c(-c2c(F)ccc(O)c2F)nc1C(=O)Nc1cnccc1N1CCC[C@H](N)C1` [Example 751, 3-Amino-N-(4-((S)-3-aminopiperidin-1-yl)pyridin-3-yl)-6-(2,6-difluoro-3-hydroxyphenyl)-5-fluoropicolinamide], the IC50 in experiment [1] (read-out: PIM3 IC50), in experiment [3] (read-out: PIM2 IC50) and in experiment [4] (setting [6]) was less than 1 µM each time.

For the molecule `Nc1ccc(-c2c(F)cccc2F)nc1C(=O)Nc1cnccc1N1CC[C@@H](O)[C@@H](N)C1` [Example 752, 3-Amino-6-(2,6-difluoro-phenyl)-pyridine-2-carboxylic acid (3-amino-4-hydroxy-3,4,5,6-tetra-hydro-2H-[1,4′]bipyridinyl-3′-yl)-amide], the IC50 in experiment [1] (read-out: PIM3 IC50), in experiment [3] (read-out: PIM2 IC50) and in experiment [4] was less than 1 µM each time.

Take `CC(C)CCc1ccc(F)c(-c2ccc(N)c(C(=O)Nc3cnccc3N3CCC[C@H](N)C3)n2)c1` [Example 755, (S)-3-amino-N-(4-(3-aminopiperidin-1-yl)pyridin-3-yl)-6-(2-fluoro-5-isopentylphenyl)picolinamide]: the IC50 in experiment [1] (read-out: PIM3 IC50), in experiment [3] (read-out: PIM2 IC50) and in experiment [4] (setting [6]) was less than 1 µM in each case.

For the origin of these results see patent US20140249135A1, “PIM KINASE INHIBITORS AND METHODS OF THEIR USE” (NOVARTIS AG, priority 2007, published 2014).
